Several values for one entry are separate records, joined by “and”; a condition that tells them apart may be missing. Equal entries are not always repeated. Marks after values point to notes of the source that are not given here. Where a SMILES comes first, the peptide text is derived from it. [ ]: non-standard residue; d: D form. The star is where a group is joined. 2Thi = N[C@@H](Cc1cccs1)C(=O)O; Cha = N[C@@H](CC1CCCCC1)C(=O)O; X1 = CC(C)C[C@H](N*)c1nnn[nH]1; Tle = CC(C)(C)[C@H](N)C(=O)O; Pip = O=C(O)[C@@H]1CCCCN1; Thz = O=C(O)[C@@H]1CSCN1; NHIsopentyl = CC(C)CCN*; NHBn = c1ccc(CN*)cc1
How the values were obtained:
Type in all cases: binding
Keap1 Kelch domain [1] = target: T1, Keap1 Kelch domain (Homo sapiens, UniProt Q14145); experiment: Isothermal titration calorimetry (ITC); details: 25 °C, 50 μM protein, 500 μM peptide, 25 mM HEPES pH 7.4, 200 mM NaCl, 5% DMSO, mean of n≥2
T1 construct: made in house; host or cells: E. coli BL21 CodonPlus
Protocol: Isothermal titration calorimetry experiments
The protein was initially dialysed overnight against buffer containing 25 mM HEPES, pH 7.4
and 200 mM NaCl. The protein was diluted to a concentration of 50 μM prior to ITC. Inhibitors
were diluted to an appropriate concentration in dialysis buffer so that the final solution
contained no more than 5% DMSO. To maintain a similar buffer composition for titrations, 5%
DMSO was added to the protein solution. All peptides in this study were used at a
concentration of 500 μM. There were no detectable solubility issues at these concentrations
of the peptides in the dialysis buffer. ITC experiments were performed with a MicroCal PEAQ-
ITC instrument (Malvern Instruments, UK).
speed of around 750 rpm. In total 30 injections were performed for one protein inhibitor
experiment with the first injection of 0.3 μL followed by 29 injections of 1.3 μL and a gap of
120 s between each injection. Data analyses were performed after subtraction of the heats of
dilution for each experiment. The thermodynamic parameters N (stoichiometry), Kd
(dissociation constant/binding affinity), ∆S (entropy change) and ∆H (enthalpy change) were
obtained by using the single-site-binding model of the PEAQ-ITC analysis software (Malvern
Instruments, UK). For each experiment, at least two titrations were performed. Titration data
were analysed independently, and the obtained values were averaged.

Keap1 Kelch protein = target: T2, Keap1 Kelch protein (Homo sapiens, UniProt Q14145); experiment: Differential scanning fluorimetry (DSF) thermal shift screen; details: 10% DMSO, DPBS pH 7.4, 30 min at RT, 25-95 °C at 1 °C/min, triplicate, Keap1 Kelch Tm 47.0±0.1 °C; for ΔTm at 10 µM: pH 7.4, 10 μM peptide; for DSF ΔTm: 10 μM peptide
T2 construct: made in house; host or cells: E. coli BL21 CodonPlus
Protocol: DPBS at pH 7.4 was added to the wells of a MicroAmp® Optical 96-well reaction plate
containing the peptide inhibitor (10 µM, 10% final DMSO concentration, 40 µL final volume).
The plate was sealed using an optical adhesive cover and covered with aluminium foil to
protect the dye from light. The plate was then transferred to a plate centrifuge and spun down
briefly (200 g, 1 min, RT) to remove any bubbles and collect the solution at the bottom of the
wells. Following a 30 min incubation at RT, the plate was placed into a 7500 Real time PCR
machine and subjected to a standard protein melting protocol8 using the 7500 Software
1°C/min. All measurements were run in triplicate. The raw data were exported to MS Excel
and analysis was performed using a custom script provided by the Structural Genomics
Consortium Oxford.[8] The temperature range over which the protein unfolding occurred was
selected and the maximum and minimum (at temperatures below the maximum intensity)
fluorescence intensities within this range were determined. The processed data were fitted to
the Boltzmann equation by linear regression analysis using the Origin Pro software.

Keap1 Kelch domain [2] = target: T1, Keap1 Kelch domain; experiment: Fluorescence polarisation (FP) competition assay; details: for IC50: FP assay, Keap1 Kelch domain; for Ki: estimated from FP IC50 by the method described by Kenakin (ref 14), read-out: FP calcd Ki; for Percentage inhibition in FP assay: 100 μM concentration of inhibitor

T2 sequence (Q14145 321-609 limits assumed): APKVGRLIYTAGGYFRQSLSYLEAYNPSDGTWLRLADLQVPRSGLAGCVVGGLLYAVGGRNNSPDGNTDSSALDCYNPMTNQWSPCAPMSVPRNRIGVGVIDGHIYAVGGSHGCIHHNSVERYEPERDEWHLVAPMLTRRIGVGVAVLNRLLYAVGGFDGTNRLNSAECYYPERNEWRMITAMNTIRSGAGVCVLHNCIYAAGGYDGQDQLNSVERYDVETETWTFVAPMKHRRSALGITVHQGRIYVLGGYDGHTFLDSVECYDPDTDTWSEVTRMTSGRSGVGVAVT
T1 sequence (Q14145 321-609 limits assumed): as above

| Molecule | ITC TΔS (Keap1 Kelch domain [1]) | ITC ΔG (Keap1 Kelch domain [1]) | ITC ΔH (Keap1 Kelch domain [1]) | Kd (Keap1 Kelch domain [1]) | ΔTm at 10 µM (Keap1 Kelch protein) | IC50 (Keap1 Kelch domain [2]) | Ki (Keap1 Kelch domain [2]) | DSF ΔTm (Keap1 Kelch protein) | Percentage inhibition in FP assay (Keap1 Kelch domain [2]) |
| --- | --- | --- | --- | --- | --- | --- | --- | --- | --- |
| CC(=O)N[C@@H](CC(=O)O)C(=O)N1CCC[C@H]1C(=O)N[C@@H](CCC(=O)O)C(=O)N[C@H](C(=O)NCC(=O)N[C@@H](CCC(=O)O)C(=O)N[C@H](C(=O)O)C(C)(C)C)[C@@H](C)O [compound 9, Ac‐Asp‐Pro‐Glu‐Thr‐Gly‐Glu‐Tle‐OH] (Ac-DPETGE[Tle]-OH) | -1.69 ± 0.34 kcal/mol | -8.59 ± 0.12 kcal/mol | -10.25 ± 0.21 kcal/mol | 580 ± 90 nM | 5.8 ± 0.6 °C | 235 ± 16 nM | 99 nM | – | – |
| CC(=O)N[C@@H](CC(=O)O)C(=O)N1CSC[C@H]1C(=O)N[C@@H](CCC(=O)O)C(=O)N[C@H](C(=O)NCC(=O)N[C@@H](CCC(=O)O)C(=O)N[C@@H](CC(C)C)C(=O)O)[C@@H](C)O [compound 15, Ac‐Asp‐Thp‐Glu‐Thr‐Gly‐Glu‐Leu‐OH] (Ac-D[Thz]ETGEL-OH) | -3.84 ± 0.31 kcal/mol | -8.95 ± 0.17 kcal/mol | -12.83 ± 0.33 kcal/mol | 310 ± 10 nM | 8.3 ± 0.3 °C | 89 ± 6 nM | 37 nM | – | – |
| Ac‐Asp‐Pro‐Glu‐Bap‐Gly‐Glu‐Leu‐OH [compound 13] | – | – | – | – | – | – | – | ≈ 0.5 °C and 0.5±0.1 °C | 27 %^[c] |
| CC(=O)N[C@@H](CC(=O)O)C(=O)N1CCCC[C@H]1C(=O)N[C@@H](CCC(=O)O)C(=O)N[C@H](C(=O)NCC(=O)N[C@@H](CCC(=O)O)C(=O)N[C@@H](CC(C)C)C(=O)O)[C@@H](C)O [compound 16, Ac‐Asp‐Pip‐Glu‐Thr‐Gly‐Glu‐Leu‐OH] (Ac-D[Pip]ETGEL-OH) | – | – | – | – | ~2 °C | 1060 ± 280 nM | 447 nM | – | – |
| Ac‐Asp‐Pro‐Glu‐hPhe‐Gly‐Glu‐Leu‐OH [compound 12] | – | – | – | – | – | – | – | ≈ 0.5 °C and 0.8±0.2 °C | 20 %^[c] |
| CC(=O)N[C@@H](CC(=O)O)C(=O)N1CCC[C@H]1C(=O)N[C@@H](CCC(=O)O)C(=O)N[C@H](C(=O)NCC(=O)N[C@@H](CCC(=O)O)C(=O)N[C@@H](CC(C)C)C(=O)NCCC(C)C)[C@@H](C)O [compound 6, Ac‐Asp‐Pro‐Glu‐Thr‐Gly‐Glu‐Leu‐NH‐isopentyl] (Ac-DPETGEL-NHIsopentyl) | – | – | – | – | ~2 °C | 745 ± 126 nM | 313 nM | – | – |
| CC(=O)N[C@@H](CC(=O)O)C(=O)N1CCC[C@H]1C(=O)N[C@@H](CCC(=O)O)C(=O)N[C@H](C(=O)NCC(=O)N[C@@H](CCC(=O)O)C(=O)N[C@@H](CC1CCCCC1)C(=O)O)[C@@H](C)O [compound 11, Ac‐Asp‐Pro‐Glu‐Thr‐Gly‐Glu‐Cha‐OH] (Ac-DPETGE[Cha]-OH) | -0.29 ± 0.001 kcal/mol | -9.57 ± 0.21 kcal/mol | -9.83 ± 0.22 kcal/mol | 75 ± 6 nM | 5.8 ± 0.9 °C | 85 ± 14 nM | 36 nM | – | – |
| Ac-DPENGEL-OH [compound 14, Ac‐Asp‐Pro‐Glu‐Asn‐Gly‐Glu‐Leu‐OH] | – | – | – | – | ~0.5 °C | 3040 ± 310 nM | 1280 nM | – | – |
| CC(=O)N[C@@H](CC(=O)O)C(=O)N1CCC[C@H]1C(=O)N[C@@H](CCC(=O)O)C(=O)N[C@H](C(=O)NCC(=O)N[C@@H](CCC(=O)O)C(=O)N[C@@H](CC(C)C)c1nnn[nH]1)[C@@H](C)O [compound 8, Ac‐Asp‐Pro‐Glu‐Thr‐Gly‐Glu‐Leu‐TET] (Ac-DPETGE-X1) | – | – | – | – | 6.2 ± 0.3 °C | 374 ± 31 nM | 157 nM | – | – |
| CC(=O)N[C@@H](CC(=O)O)C(=O)N1CCC[C@H]1C(=O)N[C@@H](CCC(=O)O)C(=O)N[C@H](C(=O)NCC(=O)N[C@@H](CCC(=O)O)C(=O)N[C@@H](CC(C)C)C(=O)NCc1ccccc1)[C@@H](C)O [compound 7, Ac‐Asp‐Pro‐Glu‐Thr‐Gly‐Glu‐Leu‐NH‐Bn] (Ac-DPETGEL-NHBn) | – | – | – | – | ~2 °C | 888 ± 28 nM | 373 nM | – | – |
| CC(=O)N[C@@H](CC(=O)O)C(=O)N1CCC[C@H]1C(=O)N[C@@H](CCC(=O)O)C(=O)N[C@H](C(=O)NCC(=O)N[C@@H](CCC(=O)O)C(=O)N[C@@H](Cc1cccs1)C(=O)O)[C@@H](C)O [compound 10, Ac‐Asp‐Pro‐Glu‐Thr‐Gly‐Glu‐Thi‐OH] (Ac-DPETGE[2Thi]-OH) | – | – | – | – | 5.3 ± 0.2 °C | 578 ± 25 nM | 243 nM | – | – |
